Patent publication US9682995B2, “Amino-substituted isothiazoles” (BAYER PHARMA AKTIENGESELLSCHAFT, priority 2013, dated 2017)
Each block holds one compound with its values, some of them ahead of it.

Columns and labels:
[1] = test system: spindle assembly checkpoint; test: SAC-Formation - Paclitaxel-Induced Assay; format: cell-based; settings: Homo sapiens; HeLa cells, paclitaxel 0.05 μM, 24 h, phosphorylated histone H3 on serine 10
Description: The spindle assembly checkpoint assures the proper segregation of chromosomes during mitosis. Upon entry into mitosis, chromosomes begin to condensate which is accompanied by the phosphorylation of histone H3 on serine 10. Dephosphorylation of histone H3 on serine 10 begins in anaphase and ends at early telophase. Accordingly, phosphorylation of histone H3 on serine 10 can be utilized as a marker of cells in mitosis. Nocodazole is a microtubule destabilizing substance. Paclitaxel is a microtubule stabilizing compound. Thus, nocodazole as well as paclitaxel interfere with microtubule dynamics and mobilize the spindle assembly checkpoint. […] The mitotic breakthrough can be detected by the decrease of cells with phosphorylation of histone H3 on serine 10. This decline is used as a marker to determine the capability of compounds of the present invention to induce a mitotic breakthrough. The typical morphological alteration of nuclei with a prematurely completed mitosis after SAC-inhibition can be monitored via image analysis routines supporting those findings.
The nocodazole and paclitaxel variations were used to focus on compounds that are capable of inhibiting a SAC induced by both microtubule destabilization as well as microtubule stabilization. When SAC inducing agents and compounds are given simultaneously, inhibitors that effectively block the SAC during formation or abrogation are identified. When cells are incubated with a SAC inducing agent and the SAC interfering compound is given after a defined time, inhibitors are identified that effectively block SAC abrogation.
Cultivated cells of the human cervical tumor cell line HeLa (ATCC CCL-2) were plated at a density of 1000 cells/well in a 1536-well microtiter plate in 2 μl PAA Ham's F12 Medium supplemented with 1% (v/v) glutamine, 1% (v/v) penicillin, 1% (v/v) streptomycin and 10% (v/v) fetal calf serum. After incubation overnight at 37° C., 10 μl/well paclitaxel at a final concentration of 0.05 μM were added to cells. Test compounds solubilized in dimethyl sulfoxide (DMSO) were added at various concentrations (0 μM, as well as in the range of 0.005 μM-20 μM; the final concentration of the solvent DMSO was 0.5% (v/v)). Cells were incubated for 24 h at 37° C. in the presence of test compounds in combination with paclitaxel. Thereafter, cells were fixed in 4% (v/v) paraformaldehyde in phosphate buffered saline (PBS) at 4° C. overnight then permeabilized in 0.1% (v/v) Triton X™ 100 in PBS at room temperature for 20 min and blocked in 0.5% (v/v) bovine serum albumin (BSA) in PBS at room temperature for 15 min. After washing with PBS, 5 μl/well antibody solution (anti-phospho-histone H3 clone 3H10, FITC; Millipore, Cat #16-222; 1:1000 dilution) was added to cells, which were incubated for 2 h at room temperature. Afterwards, cells were washed with PBS and 5 μl/well solution of HOECHST 33342 dye (5 μg/ml) was added to cells and cells were incubated 15 min at room temperature in the dark. Cells were washed twice with PBS then covered with PBS and stored at 4° C. until analysis. Images were acquired with a PERKIN ELMER OPERA™ High-Content Analysis reader. Images were analyzed with image analysis software MetaXpress™ from Molecular devices utilizing the Mitotic Index application module. In this assay both labels HOECHST 33342 and phosphorylated Histone H3 on serine 10 were measured. HOECHST 33342 labels the DNA and is used to count the cell number. The staining of phosphorylated Histone H3 on serine 10 determines the number of mitotic cells. […] Otherwise cells were arrested at G2/M phase of the cell cycle progression. The raw assay data were further analyzed by four-parametric hill equation using Genedata's Assay Analyzer and Condoseo software.

[2] = biological target: CDK2/CycE (Homo sapiens (Human), UniProt P24941); test: CDK2/CycE kinase assay (TR-FRET); format: biochemical; settings: 10 μM ATP; read-out: CDK2 avg (IC50 [mol/l])
Description: CDK2/CycE-inhibitory activity of compounds of the present invention was quantified employing the CDK2/CycE TR-FRET assay as described in the following paragraphs.
Recombinant fusion proteins of GST and human CDK2 and of GST and human CycE, expressed in insect cells (Sf9) and purified by Glutathion-Sepharose affinity chromatography, were purchased from ProQinase GmbH (Freiburg, Germany). As substrate for the kinase reaction biotinylated peptide biotin-Ttds-YISPLKSPYKISEG (C-terminus in amid form) was used which can be purchased e.g. form the company JERINI peptide technologies (Berlin, Germany).
For the assay 50 nl of a 100 fold concentrated solution of the test compound in DMSO was pipetted into a black low volume 384 well microtiter plate (Greiner Bio-One, Frickenhausen, Germany), 2 μl of a solution of CDK2/CycE in aqueous assay buffer [50 mM Tris/HCl pH 8.0, 10 mM MgCl2, 1.0 mM dithiothreitol, 0.1 mM sodium ortho-vanadate, 0.01% (v/v) Nonidet-P40 (Sigma)] were added and the mixture was incubated for 15 min at 22° C. to allow pre-binding of the test compounds to the enzyme before the start of the kinase reaction. Then the kinase reaction was started by the addition of 3 μl of a solution of adenosine-tri-phosphate (ATP, 16.7 μM=>final conc. in the 5 μl assay volume is 10 μM) and substrate (1.25 μM=>final conc. in the 5 μl assay volume is 0.75 μM) in assay buffer and the resulting mixture was incubated for a reaction time of 25 min at 22° C. The concentration of CDK2/CycE was adjusted depending of the activity of the enzyme lot and was chosen appropriate to have the assay in the linear range, typical concentrations were in the range of 130 ng/ml. The reaction was stopped by the addition of 5 μl of a solution of TR-FRET detection reagents (0.2 μM streptavidine-XL665 [Cisbio Bioassays, Codolet, France] and 1 nM anti-RB(pSer807/pSer811)-antibody from BD Pharmingen [#558389] and 1.2 nM LANCE EU-W1024 labeled anti-mouse IgG antibody [Perkin-Elmer, product no. AD0077, as an alternative a Terbium-cryptate-labeled anti-mouse IgG antibody from Cisbio Bioassays can be used]) in an aqueous EDTA-solution (100 mM EDTA, 0.2% (w/v) bovine serum albumin in 100 mM HEPES/NaOH pH 7.0).
The resulting mixture was incubated 1 h at 22° C. to allow the formation of complex between the phosphorylated biotinylated peptide and the detection reagents. Subsequently the amount of phosphorylated substrate was evaluated by measurement of the resonance energy transfer from the Eu-chelate to the streptavidine-XL. Therefore, the fluorescence emissions at 620 nm and 665 nm after excitation at 350 nm was measured in a TR-FRET reader, e.g. a Rubystar (BMG Labtechnologies, Offenburg, Germany) or a Viewlux (Perkin-Elmer). The ratio of the emissions at 665 nm and at […] was taken as the measure for the amount of phosphorylated substrate. The data were normalised (enzyme reaction without inhibitor=0% inhibition, all other assay components but no enzyme=100% inhibition).

Compound: CCc1ccccc1NC(=O)c1c(C)nsc1Nc1ncccc1C#N [Example 8, 5-[(3-Cyanopyridin-2-yl)amino]-N-(2-ethylphenyl)-3-methyl-1,2-thiazole-4-carboxamide]
- IC50 [1]: 18 µM
- IC50 [2]: > 20 µM

Compound: CCc1ccccc1NC(=O)c1c(C)nsc1Nc1cnccn1 [Example 1, N-(2-Ethylphenyl)-3-methyl-5-(pyrazin-2-ylamino)-1,2-thiazole-4-carboxamide]
- IC50 [1]: 4.9 µM
- IC50 [2]: > 20 µM

Compound: CCc1ccccc1NC(=O)c1c(C)nsc1Nc1nccc(OC)n1 [Example 16, N-(2-Ethylphenyl)-5-[(4-methoxypyrimidin-2-yl)amino]-3-methyl-1,2-thiazole-4-carboxamide]
- IC50 [1]: > 20 µM
- IC50 [2]: > 20 µM

Compound: COc1ccc(NC(=O)c2c(C)nsc2Nc2cnc3cc(Cl)ccc3n2)cn1 [Example 23, 5-[(6-Chloroquinoxalin-2-yl)amino]-N-(6-methoxypyridin-3-yl)-3-methyl-1,2-thiazole-4-carboxamide]
- IC50 [1]: 0.5 µM
- IC50 [2]: > 20 µM

Compound: CCc1ccccc1NC(=O)c1c(C)nsc1Nc1cc(NC)ncn1 [Example 15, N-(2-Ethylphenyl)-3-methyl-5-{[6-(methylamino)pyrimidin-4-yl]amino}-1,2-thiazole-4-carboxamide]
- IC50 [1]: > 20 µM
- IC50 [2]: > 20 µM

Compound: CCc1ccccc1NC(=O)c1c(C)nsc1Nc1nc2ccccc2o1 [Example 11, 5-(1,3-Benzoxazol-2-ylamino)-N-(2-ethylphenyl)-3-methyl-1,2-thiazole-4-carboxamide]
- IC50 [1]: 2.9 µM
- IC50 [2]: > 20 µM

Compound: CCc1ccccc1NC(=O)c1c(C)nsc1Nc1ncnc2ccccc12 [Example 10, N-(2-Ethylphenyl)-3-methyl-5-(quinazolin-4-ylamino)-1,2-thiazole-4-carboxamide]
- IC50 [1]: 11 µM
- IC50 [2]: > 20 µM

Compound: COc1ccc(NC(=O)c2c(C)nsc2Nc2nccnc2C#N)cn1 [Example 24, 5-[(3-Cyanopyrazin-2-yl)amino]-N-(6-methoxypyridin-3-yl)-3-methyl-1,2-thiazole-4-carboxamide]
- IC50 [1]: 8.5 µM
- IC50 [2]: > 20 µM

Second part, the compound after the results:

- IC50 [1]: 1.9 µM
- IC50 [2]: > 20 µM
Compound: Cc1nsc(Nc2cnc(C(=O)N(C)C)cn2)c1C(=O)Nc1ccc(F)c(F)c1 [Example 109, 5-({4-[(3,4-Difluorophenyl)carbamoyl]-3-methyl-1,2-thiazol-5-yl}amino)-N,N-dimethylpyrazine-2-carboxamide]

- IC50 [1]: 0.3 µM
- IC50 [2]: > 20 µM
Compound: CCNC(=O)c1csc(Nc2snc(C)c2C(=O)Nc2ccc(F)c(F)c2)n1 [Example 99, N-(3,4-Difluorophenyl)-5-{[4-(ethylcarbamoyl)-1,3-thiazol-2-yl]amino}-3-methyl-1,2-thiazole-4-carboxamide]

- IC50 [1]: 0.016 µM
- IC50 [2]: > 20 µM
Compound: Cc1nsc(Nc2ccc(C#N)cn2)c1C(=O)Nc1ccc(Cl)c(F)c1 [Example 52, N-(4-Chloro-3-fluorophenyl)-5-[(5-cyanopyridin-2-yl)amino]-3-methyl-1,2-thiazole-4-carboxamide]

- IC50 [1]: 0.03 µM
- IC50 [2]: > 20 µM
Compound: Cc1nsc(Nc2cc(C#N)ccn2)c1C(=O)Nc1ccc(Cl)c(F)c1 [Example 54, N-(4-Chloro-3-fluorophenyl)-5-[(4-cyanopyridin-2-yl)amino]-3-methyl-1,2-thiazole-4-carboxamide]

- IC50 [1]: 0.11 µM
- IC50 [2]: > 20 µM
Compound: COc1ccc(NC(=O)c2c(C)nsc2Nc2cnc3c(F)c(F)ccc3n2)cn1 [Example 43, 5-[(5,6-Difluoroquinoxalin-2-yl)amino]-N-(6-methoxypyridin-3-yl)-3-methyl-1,2-thiazole-4-carboxamide]

- IC50 [1]: 0.12 µM
- IC50 [2]: > 20 µM
Compound: Cc1nsc(Nc2cc(C#N)ccn2)c1C(=O)Nc1ccc(Oc2ccc(F)cc2F)nc1 [Example 114, 5-[(4-Cyanopyridin-2-yl)amino]-N-[6-(2,4-difluorophenoxy)pyridin-3-yl]-3-methyl-1,2-thiazole-4-carboxamide]

- IC50 [1]: 0.17 µM
- IC50 [2]: > 20 µM
Compound: Cc1nsc(Nc2cc(C#N)ccn2)c1C(=O)Nc1ccc(F)c(F)c1 [Example 27, 5-[(4-Cyanopyridin-2-yl)amino]-N-(3,4-difluorophenyl)-3-methyl-1,2-thiazole-4-carboxamide]

- IC50 [1]: 0.81 µM
- IC50 [2]: > 20 µM
Compound: CCc1ccccc1NC(=O)c1c(C)nsc1Nc1cnc2ccc(Cl)cc2n1 [Example 41, 5-[(7-Chloroquinoxalin-2-yl)amino]-N-(2-ethylphenyl)-3-methyl-1,2-thiazole-4-carboxamide]

- IC50 [1]: 0.12 µM
- IC50 [2]: > 20 µM
Compound: Cc1nsc(Nc2cnc3ccccc3n2)c1C(=O)Nc1ccc(OC2CCCCC2)nc1 [Example 115, N-[6-(Cyclohexyloxy)pyridin-3-yl]-3-methyl-5-(quinoxalin-2-ylamino)-1,2-thiazole-4-carboxamide]

- IC50 [1]: 1.2 µM
- IC50 [2]: > 20 µM
Compound: COc1ncc(NC(=O)c2c(C)nsc2Nc2ccc(C#N)cn2)cc1C [Example 120, 5-[(5-Cyanopyridin-2-yl)amino]-N-(6-methoxy-5-methylpyridin-3-yl)-3-methyl-1,2-thiazole-4-carboxamide]

- IC50 [1]: 0.035 µM
- IC50 [2]: > 20 µM
Compound: Cc1nsc(Nc2nc3c(C(F)(F)F)cccc3s2)c1C(=O)Nc1ccc(F)c(F)c1 [Example 51, N-(3,4-Difluorophenyl)-3-methyl-5-{[4-(trifluoromethyl)-1,3-benzothiazol-2-yl]-amino}-1,2-thiazole-4-carboxamide]

- IC50 [1]: 0.57 µM
- IC50 [2]: > 20 µM
Compound: COc1ccc(NC(=O)c2c(C)nsc2Nc2cccc(C#N)n2)cn1 [Example 37, 5-[(6-Cyanopyridin-2-yl)amino]-N-(6-methoxypyridin-3-yl)-3-methyl-1,2-thiazole-4-carboxamide]
